Values quoted from earlier work in patent publication US6730319B2, “Pharmaceutical compositions having depressed melting points” (Hoffmann-La Roche Inc., priority 2001, dated 2004).

Settings: in vivo

- bioavailability increase in the fed status compared to the fasted state: 28 fold
SMILES: Cc1c(C)c2c(c(C)c1OC(=O)c1cccnc1)CC[C@@](C)(CCC[C@H](C)CCC[C@H](C)CCCC(C)C)O2 [alpha-tocopherol-nicotinate]
